The values below are quoted from earlier work in patent publication EP0974361A1, “METHOD OF USING ANTACID AGENT AND PHARMACEUTICAL PREPARATION CONTAINING ANTACID AGENT” (CHUGAI SEIYAKU KABUSHIKI KAISHA, priority 1996, dated 1997).

Where two headings read alike, the source gives them in different places.

Consider `C[C@H]1O[C@@H](O[C@H]2[C@@H](O)C[C@H](O[C@H]3[C@@H](O)C[C@H](O[C@H]4CC[C@@]5(C)[C@H](CC[C@@H]6[C@@H]5C[C@@H](O)[C@]5(C)[C@@H](C7=CC(=O)OC7)CC[C@]65O)C4)O[C@@H]3C)O[C@@H]2C)C[C@H](O)[C@@H]1O` [digoxin], for which, for the setting “used along with sucralfate (Giesing et al.)”, the drop in adsorption is 19%.
On to `CNC(=C[N+](=O)[O-])NCCSCc1ccc(CN(C)C)o1` [ranitidine], for which, where the note is “in vivo”, the “bioavailability dropped by” value is listed as 29%.
Regarding `CC(=O)N1CCN(c2ccc(OCC3COC(Cn4ccnc4)(c4ccc(Cl)cc4Cl)O3)cc2)CC1` (centres unmarked) [ketoconazole], the “bioavailability dropped by” value (used along with sucralfate (Goss et al.; Maconochie et al.)) is 21%.
For the compound `CN/C(=N/CCSCc1nc[nH]c1C)NC#N` [cimetidine], the AUC result (simultaneous administration of sucralfate (Yoshida et al.)) was “drop”.
`CC(C)Cc1ccc(C(C)C(=O)O)cc1` (centres unmarked) [ibuprofen]: under “used along with sucralfate (Anaya et al.)”, the absorption entry was “reduced and retarded”.
